Drawing on patent publication US6413517B1, “Identification of broadly reactive DR restricted epitopes” (Epimmune, Inc., priority 1997, dated 2002), this text covers IC50 for four compounds.

Where two headings read alike, the source gives them in different places. No end group written: not given here.

Assay [1] concerns the target T1, DRB1*0401 (DR4w4) (Homo sapiens, UniProt P01903+P01911, A100K/A169T/F76Y/I96L/K127E/L162R/M171V/N62H/P40V/Q125Y/R42H/S133A/S149N/S66Y/V115G/V209L/W38E).
T1 construct: Epstein-Barr virus (EBV) transformed homozygous cell lines were used as sources; endogenous in cells; host or cells: PREISS (EBV-transformed homozygous B cell line)
The assay can be described thus: biochemical. In kind it is binding.

Assay [2] has as its target T2, DRB1*0701 (DR7) (Homo sapiens, UniProt P01903+P01911, A100R/A102G/A103Q/D57E/D86V/E43K/F76Y/K127E/L162R/M171V/P40G/Q125H/Q99D/R33Q/R42Y/R54Q/S133A/S66F/T210M/V115G/Y107V/Y59L/Y89S).
T2 construct: Epstein-Barr virus (EBV) transformed homozygous cell lines were used as sources; endogenous in cells; host or cells: PITOUT (EBV-transformed homozygous B cell line)
In words: biochemical. In kind it is binding.

Assay [3] concerns the target T3, DRB1*0301 (DR3w17) (Homo sapiens, UniProt P01903+P01911, A100K/A102G/A103R/A169T/F55Y/I96L/K41T/L162R/M171V/P40S/Q125H/Q178H/Q39Y/R42S/S66N/T106N/T262R/W38E/Y61H). In words: biochemical. The note with it: Binding Capacity (IC50% nM) DR3.
Assay [4] concerns the target T3, DRB1*0301 (DR3w17). The note with it: read-out: Binding Capacity (IC 50% nM) Other Alleles DR3.
In assay [5] the target is T4, DRB1*0901 (DR9) (Homo sapiens, UniProt P01903+P01911, A100R/A103E/D57H/D86V/F55Y/F60I/F76Y/I96F/K127E/L162R/M171V/P40D/Q125H/Q99R/R33Q/R42F/S133A/S66N/T210M/V115G/W38K/Y107V/Y59G/Y89S).
T4 construct: Epstein-Barr virus (EBV) transformed homozygous cell lines were used as sources; endogenous in cells
In words: biochemical. In kind it is binding.

Assay [6] addresses T5, DRB5*0101 (DR2w2a) (Homo sapiens, UniProt P01903+Q30154).
T5 construct: Epstein-Barr virus (EBV) transformed homozygous cell lines were used as sources; endogenous in cells; host or cells: GM3107 (EBV-transformed homozygous B cell line)
The assay can be described thus: biochemical. In kind it is binding.

The target of assay [7] is T6, DRB1*1101 (DR5w11) (Homo sapiens, UniProt P01903+P01911, A100R/A169T/A87E/I96F/K41T/L162R/M171V/P40S/Q125H/Q178H/Q39Y/Q99D/R42S/S66Y/T262R/V115G/W38E).
T6 construct: Epstein-Barr virus (EBV) transformed homozygous cell lines were used as sources; endogenous in cells; host or cells: SWEIG (EBV-transformed homozygous B cell line)
T6 sequence (P01903 26-254, other chains not shown): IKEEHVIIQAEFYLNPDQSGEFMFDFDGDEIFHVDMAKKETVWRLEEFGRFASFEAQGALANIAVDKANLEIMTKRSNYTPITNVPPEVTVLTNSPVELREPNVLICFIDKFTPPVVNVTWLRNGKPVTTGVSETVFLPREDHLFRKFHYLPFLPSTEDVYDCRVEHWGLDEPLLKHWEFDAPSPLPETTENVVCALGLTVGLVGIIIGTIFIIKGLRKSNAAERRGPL
The assay can be described thus: biochemical. In kind it is binding.

Assay [8] addresses T7, DRB1*1302 (DR6w19) (Homo sapiens, UniProt P01903+P01911, A100E/A169T/K41T/L162R/M171V/P40S/Q125H/Q178H/Q39Y/Q99D/R42S/S66N/T262R/V115G/W38E/Y61H).
T7 construct: Epstein-Barr virus (EBV) transformed homozygous cell lines were used as sources; the source of Class II molecules the EBV transformed homozygous cell line H0301; endogenous in cells; host or cells: H0301 (EBV-transformed homozygous B cell line)
In words: biochemical. In kind it is binding.

The target in assay [9] is T8, DRB1*0101 (DR1) (Homo sapiens, UniProt P01903+P01911, A100R/D57E/F55L/F60I/F76Y/I96L/L162R/M171V/P40L/Q125E/R42F/V115G/Y59C).
T8 construct: Epstein-Barr virus (EBV) transformed homozygous cell lines were used as sources; endogenous in cells; host or cells: LG2 (EBV-transformed homozygous B cell line)
In words: biochemical. Type of assay: binding.

Assay [10] has as its target T9, DRB1*1201 (DR5w12) (Homo sapiens, UniProt P01903+P01911, A100R/A169T/D57E/D86V/F55L/H45Y/K41T/L162R/M171V/P40S/Q125H/Q178H/Q39Y/Q99D/R42G/S66L/T262R/V114A/V67L/W38E/Y59H/Y61H/Y89S).
T9 construct: Epstein-Barr virus (EBV) transformed homozygous cell lines were used as sources; endogenous in cells; host or cells: Herluf (EBV-transformed homozygous B cell line)
In words: biochemical. In kind it is binding.

Assay [11] concerns the target T10, DRB1*0405 (DR4w15) (Homo sapiens, UniProt P01903+P01911, A100R/A169T/D86S/F76Y/I96L/K127E/L162R/M171V/N62H/P40V/Q125Y/R42H/S133A/S149N/S66Y/V115G/V209L/W38E).
T10 construct: Epstein-Barr virus (EBV) transformed homozygous cell lines were used as sources; endogenous in cells; host or cells: KT3 (EBV-transformed homozygous B cell line)
In words: biochemical. In kind it is binding.

For assay [12], the target named is T11, DRB1*0802 (DR8w2) (Homo sapiens, UniProt P01903+P01911, A100R/A103L/A169T/F76Y/H45Y/I96F/K41T/L162R/M171V/P40S/Q125H/Q178H/Q39Y/Q99D/R218S/R42G/S66Y/V115G/W38E).
T11 construct: Epstein-Barr virus (EBV) transformed homozygous cell lines were used as sources; endogenous in cells; host or cells: OLL (EBV-transformed homozygous B cell line)
The assay can be described thus: biochemical. In kind it is binding.

The target in assay [13] is T12, DRB1*1501 (DR2w2b) (Homo sapiens, UniProt P01903+P01911).
T12 construct: expressed in transfected cells; host or cells: transfected fibroblasts L466.1
The assay can be described thus: biochemical. Type of assay: binding.

The mark [14] stands for this setting: Binding Capacity (IC 50% nM) DR1,4,7 DR4w4.
The mark [15] stands for this setting: Binding Capacity (IC50% nM) DR7.
[16] abbreviates: read-out: Binding Capacity (IC 50% nM) DR1,4,7 DR7.
Setting [17] is: Binding Capacity (IC50% nM) DR9.
Setting [18] is: read-out: Binding Capacity (IC 50% nM) Other Alleles DR9.
Setting [19] is: Binding Capacity (IC 50% nM) Other Alleles DR2w2a.
Where [20] appears, read: Binding Capacity (IC50% nM) DR5w11.
[21] abbreviates: read-out: Binding Capacity (IC 50% nM) Other Alleles DR5w11.
Setting [22] is: Binding Capacity (IC50% nM) DR6w19.
Setting [23] is: read-out: Binding Capacity (IC 50% nM) Other Alleles DR6w19.
The mark [24] stands for this setting: Binding Capacity (IC 50% nM) DR1,4,7 DRB1.
Where [25] appears, read: Binding Capacity (IC50% nM) DR5w12.
The mark [26] stands for this setting: read-out: Binding Capacity (IC 50% nM) Other Alleles DR5w12.
Setting [27] is: Binding Capacity (IC50% nM) DR4w15.
The mark [28] stands for this setting: read-out: Binding Capacity (IC 50% nM) Other Alleles DR4w15.
[29] abbreviates: Binding Capacity (IC50% nM) DR8w2.
[30] abbreviates: read-out: Binding Capacity (IC 50% nM) Other Alleles DR8w2.
Where [31] appears, read: Binding Capacity (IC50% nM) DR2w2b.
Setting [32] is: read-out: Binding Capacity (IC 50% nM) Other Alleles DR2w2b.
[33] abbreviates: read-out: Binding Capacity (IC 50% nM) Other Alleles DR2w2a.
Setting [34] is: Binding Capacity (IC 50% nM) Other Alleles DR4w15.
The mark [35] stands for this setting: Binding Capacity (IC 50% nM) Other Alleles DR2w2b.

In the case of RVYQEPQVSPPQRAET [Peptide 1136.59.01a], the IC50 is less than 1000 nM in assay [1] (setting [14]); more than 10000 nM in assay [2] (setting [15]); more than 1000 nM in [2] (setting [16]); more than 10000 nM in [3]; more than 1000 nM in [4]; more than 10000 nM in [5] (setting [17]). Besides, the IC50 was more than 1000 nM in assay [5] (setting [18]); less than 1000 nM in [6] (setting [19]); more than 10000 nM in assay [7] (setting [20]); more than 1000 nM in [7] (setting [21]); more than 10000 nM in assay [8] (setting [22]); more than 1000 nM in [8] (setting [23]). For the same compound, the IC50 in [9] (Binding Capacity (IC50% nM) DR1) was 130 nM; in assay [9] (setting [24]), less than 1000 nM; in assay [10] (setting [25]), more than 10000 nM; in [10] (setting [26]) it was more than 1000 nM; in assay [11] (setting [27]), 3140 nM; in assay [11] (setting [28]), more than 1000 nM. Besides, the IC50 is more than 10000 nM in [12] (setting [29]), more than 1000 nM in assay [12] (setting [30]), more than 10000 nM in assay [13] (setting [31]) and more than 1000 nM in assay [13] (setting [32]).

For the compound QEIDPLSYNYIPVNSN [Peptide 1136.55], the IC50 in assay [1] (setting [14]) was less than 1000 nM; in assay [2] (setting [15]), 2450 nM; in assay [2] (setting [16]), more than 1000 nM; in assay [3], more than 10000 nM; in assay [4] it was more than 1000 nM; in assay [5] (setting [17]), more than 10000 nM. The IC50 is more than 1000 nM in [5] (setting [18]); more than 10000 nM in assay [6] (Binding Capacity (IC50% nM) DR2w2a); more than 1000 nM in assay [6] (setting [33]); 4540 nM in assay [7] (setting [20]); more than 1000 nM in [7] (setting [21]); 5000 nM in assay [8] (setting [22]). Also, the IC50 in assay [8] (setting [23]) was more than 1000 nM; in [9] (setting [24]), less than 1000 nM; in assay [10] (setting [25]), more than 10000 nM; in assay [10] (setting [26]) it was more than 1000 nM; in [11] (setting [27]), 271 nM; in assay [11] (setting [34]) it was less than 1000 nM. The IC50 in assay [12] (setting [29]) was more than 10000 nM; in assay [12] (setting [30]), more than 1000 nM; in assay [13] (setting [31]) it was more than 10000 nM; in assay [13] (setting [32]) it was more than 1000 nM.

In the case of `CC[C@H](C)[C@H](NC(=O)[C@H](Cc1ccccc1)NC(=O)[C@H](Cc1ccccc1)NC(=O)[C@H](CO)NC(=O)[C@H](C)NC(=O)[C@@H]1CCCN1C(=O)[C@H](Cc1ccccc1)NC(=O)[C@@H](NC(=O)[C@@H](N)C(C)C)C(C)C)C(=O)N[C@@H](CCCCN)C(=O)N[C@@H](CC(C)C)C(=O)N1CCC[C@H]1C(=O)N[C@H](C(=O)N[C@H](C(=O)N[C@@H](CC(C)C)C(=O)N[C@@H](C)C(=O)O)[C@@H](C)CC)[C@@H](C)CC` [Peptide 1136.11], the IC50 in [1] (setting [14]) was less than 1000 nM; in assay [2] (setting [15]) it was 9610 nM; in assay [2] (setting [16]) it was more than 1000 nM; in assay [3], more than 10000 nM; in assay [4], more than 1000 nM; in assay [5] (setting [18]), more than 1000 nM. Further, the IC50 in assay [6] (setting [19]) is less than 1000 nM; in assay [7] (Binding Capacity (IC 50% nM) Other Alleles DR5w11), less than 1000 nM; in assay [8] (setting [22]), more than 10000 nM; in [8] (setting [23]), more than 1000 nM; in assay [9] (setting [24]) it was less than 1000 nM; in assay [10] (setting [25]), more than 10000 nM. Also, the IC50 is more than 1000 nM in assay [10] (setting [26]), less than 1000 nM in [11] (setting [34]), less than 1000 nM in assay [12] (Binding Capacity (IC 50% nM) Other Alleles DR8w2) and less than 1000 nM in assay [13] (setting [35]).

Consider `CC[C@H](C)[C@H](NC(=O)[C@H](CC(=O)O)NC(=O)[C@H](CC(C)C)NC(=O)[C@@H](NC(=O)CNC(=O)[C@@H](NC(=O)[C@@H](NC(=O)[C@@H](NC(=O)[C@@H](NC(=O)[C@H](C)NC(=O)[C@H](CC(C)C)NC(=O)[C@@H](NC(=O)[C@H](CC(N)=O)NC(=O)[C@H](CO)NC(=O)[C@H](CC(C)C)NC(=O)[C@@H](N)CC(N)=O)C(C)C)[C@@H](C)O)[C@@H](C)CC)[C@@H](C)O)[C@@H](C)O)C(C)C)C(=O)O` [Peptide 1136.24], for which the IC50 is more than 1000 nM in [1] (read-out: Binding Capacity (IC 50% nM) DR1,4,7 DR4w4); less than 1000 nM in assay [2] (Binding Capacity (IC 50% nM) DR1,4,7 DR7); more than 10000 nM in assay [3]; more than 1000 nM in [4]; more than 10000 nM in assay [5] (setting [17]); more than 1000 nM in [5] (setting [18]). For the same compound, the IC50 was more than 1000 nM in [6] (setting [33]); more than 10000 nM in [7] (setting [20]); more than 1000 nM in [7] (setting [21]); less than 1000 nM in assay [8] (Binding Capacity (IC 50% nM) Other Alleles DR6w19); less than 1000 nM in assay [9] (setting [24]); more than 10000 nM in assay [10] (setting [25]). Also, the IC50 in assay [10] (setting [26]) was more than 1000 nM; in [11] (setting [28]), more than 1000 nM; in assay [12] (setting [29]), more than 10000 nM; in [12] (setting [30]) it was more than 1000 nM; in assay [13] (setting [35]), less than 1000 nM.
